Experimental data taken from US20060094763A1, “Polymorphic forms of 6-[2-(methylcarbomoyl) phenyl sulfanyl]-3-E-[2-(pyridin-2-yl)ethenyl]indazole” (Agouron Pharmaceuticals, Inc., priority 2004, published 2006).
Converted amounts (≈) assume the structure as drawn. Values belong to the compound of their own block, whether it stands above or below them.

How the values were obtained:
[1] = Salt screening: solubility of in situ acid salts of Compound 1 in 100 mM acid solutions (HPLC); conditions: 100 mM acid solution, excess solid
Protocol: To ensure that the maximum solubility level was reached, the samples were checked periodically to ensure that excess solid was present. After 8 days 400 μL of the mixture was removed and centrifuged at 14,000 rpm for 5 minutes. 100 μL of the supernatant was then removed, diluted with 900 μL of a 1:1 mixture of acetonitrile/methanol, and then analyzed by HPLC.

[2] = Aqueous solubility of polymorphic forms of Compound 1; format: physicochemical; conditions: for solubility: aqueous medium
[3] = Physical and chemical storage stability of polymorphic forms (heat, humidity); conditions: for Time stable: 40° C. under 75% relative humidity
[4] = Human metabolites of Compound 1; conditions: in vivo
Text: The chemical structures of three oxygenated metabolites, M12 (the sulfoxide of Compound 1), M15 (the sulfone of Compound 1) and M9 (a mixed sulfoxidized/N-oxidized product of Compound 1), were confirmed based on the comparison in chromatographic retention times and mass spectra of the in-vivo metabolites to their authentic reference standards. The chemical structure of the glucuronide (M7) of Compound 1 was confirmed by the isolation of the metabolite followed by NMR determination. […] The proposed structures (or elemental compositions) of M5 and its major fragment ions (m/z 342, 311, 265, and 237) were all highly consistent with the elemental compositions determined by accurate mass measurement (with mass measurement accuracy ≦1.2 ppm for all). The definitive structures of metabolites M8a, M12a and M14 are currently unknown.

Compound: Benzene sulfonic acid
Solubility 8 days ([1]; stirred 8 days in the dark): 0.01 mg/mL | Solubility 14 days ([1]; stirred 14 days in the dark): 0.011 mg/mL

solubility ([2]; pH 1, simulated gastric fluid, pH 1): ~0.55 mg/mL (≈ 1420 µM) | solubility ([2]; pH 4, aqueous buffer, pH 4): ~0.006 mg/mL (≈ 15.5 µM) | solubility ([2]; pH 8, aqueous buffer, pH 8): ~0.002 mg/mL (≈ 5.17 µM) | Aqueous solubility ([2]; pH 2): about 157 μg/mL | Aqueous solubility ([2]; pH 6.5): about 2 μg/mL | Time stable [3]: at least 30 days | Time physically and chemically stable ([3]; 80° C.): at least 30 days
Compound: CNC(=O)c1ccccc1Sc1ccc2c(/C=C/c3ccccn3)n[nH]c2c1 [Form IV, 6-[2-(methylcarbamoyl)phenylsulfanyl]-3-E-[2-(pyridin-2-yl)ethenyl]indazole]

solubility ([2]; pH 2, simulated gastric fluid, pH 2): 0.179 mg/mL (≈ 463 µM) | Aqueous solubility ([2]; pH 6.5): 0.009 mg/mL | Time stable [3]: at least 13 days | Chemical stability ([3]; 80° C.): chemically stable
Compound: CNC(=O)c1ccccc1Sc1ccc2c(/C=C/c3ccccn3)n[nH]c2c1 [Form I, 6-[2-(methylcarbamoyl)phenylsulfanyl]-3-E-[2-(pyridin-2-yl)ethenyl]indazole]

Metabolism in humans [4]: extensive metabolism
Compound: CNC(=O)c1ccccc1Sc1ccc2c(/C=C/c3ccccn3)n[nH]c2c1 [Compound 1, 6-[2-(methylcarbamoyl)phenylsulfanyl]-3-E-[2-(pyridin-2-yl)ethenyl]indazole]
